pIC50: −log10 of the molar value.

Cyclin-dependent kinase 9 (Homo sapiens), sequence (P50750 whole entry): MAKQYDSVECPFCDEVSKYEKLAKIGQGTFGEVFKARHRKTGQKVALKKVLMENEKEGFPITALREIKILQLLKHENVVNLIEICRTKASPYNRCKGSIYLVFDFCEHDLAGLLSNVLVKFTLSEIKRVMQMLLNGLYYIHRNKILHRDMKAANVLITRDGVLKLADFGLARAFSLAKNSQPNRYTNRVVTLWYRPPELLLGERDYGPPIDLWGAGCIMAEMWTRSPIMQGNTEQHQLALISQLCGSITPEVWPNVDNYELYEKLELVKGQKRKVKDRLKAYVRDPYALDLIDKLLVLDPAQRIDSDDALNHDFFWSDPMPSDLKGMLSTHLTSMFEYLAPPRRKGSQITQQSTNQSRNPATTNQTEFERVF

The target of the first experiment is Bromodomain-containing protein 4 (Homo sapiens, UniProt O60885). Briefly: Inhibition of BRD4 BD1 (unknown origin).
Details: not given
As usually defined, the pIC50 is −log10 of the IC50, conventionally taken in molar units. The low end stands for a high IC50, the high end for a low IC50. Consider `CC(C)N1c2cc(Nc3nccc(-c4ccccc4)n3)ccc2N(C)C(=O)C1C` (stereo not drawn), for which the pIC50 is 6.71.

A further experiment has as its target Cyclin-dependent kinase 9 (Homo sapiens) (UniProt P50750). The settings on record: dose 100.0 nM.
Description: Inhibition of CDK9 (unknown origin) using caliper substrate CTD3 at 100 nM by mobility shift assay relative to control
By inhibition is commonly meant the drop in the measured response relative to a control, in per cent. For the compound `Cc1c(-c2nc(Nc3ccc4c(c3)N(C(C)C)[C@H](C)C(=O)N4C)ncc2F)c(C2CC2)nn1C`, the inhibition was 15%.
Same read-out and setting: next, `CCn1nccc1-c1ccnc(Nc2ccc3c(c2)N(C(C)C)[C@H](C)C(=O)N3C)n1`: 4.7%; `CC(C)c1n[nH]cc1-c1ccnc(Nc2ccc3c(c2)N(C(C)C)[C@H](C)C(=O)N3C)n1`: 69%; `Cc1c(-c2ccnc(Nc3ccc4c(c3)N(C(C)C)[C@H](C)C(=O)N4C)n2)cnn1C`: 25%.
On the same count and under the same terms, next, `Cc1n[nH]cc1-c1ccnc(Nc2ccc3c(c2)N(C(C)C)[C@H](C)C(=O)N3C)n1`: 53%; `Cc1n[nH]c(C2CCC2)c1-c1ccnc(Nc2ccc3c(c2)N(C(C)C)[C@H](C)C(=O)N3C)n1`: 5.9%; `Cc1cc(Nc2ccnc(Nc3ccc4c(c3)N(C(C)C)[C@H](C)C(=O)N4C)n2)n(C)n1`: -0.3%.
The same measure, in the same setting: for `CC(C)N1c2cc(Nc3nccc(-c4ccnn4C(C)C)n3)ccc2N(C)C(=O)[C@H]1C` the value was 14%.
Consider `CC(C)N1c2cc(Nc3nccc(-c4c[nH]nc4C4CCCCC4)n3)ccc2N(C)C(=O)[C@H]1C`, for which the inhibition was 56%.
Turning to `CC(C)N1c2cc(Nc3nccc(Nc4cc(C(C)(C)C)n[nH]4)n3)ccc2N(C)C(=O)[C@H]1C`, the inhibition is 45%.
As to `CC[C@@H]1C(=O)N(C)c2ccc(Nc3ncc(F)c(-c4c(C5CCC5)nn(C)c4C)n3)cc2N1C(C)C`, the inhibition was 10%.
Still for that read-out and setting: for `CC(C)N1c2cc(Nc3nccc(Nc4cc(-c5ccccc5)nn4C)n3)ccc2N(C)C(=O)[C@H]1C` the value was -1.5%.
Regarding `Cc1cnc(Nc2ccc3c(c2)N(C(C)C)[C@H](C)C(=O)N3C)nc1-c1c(C2CC2)nn(C)c1C`, the inhibition is 0%.
On the same count and under the same terms, next, `CC(C)N1c2cc(Nc3nccc(-c4ccnn4C)n3)ccc2N(C)C(=O)[C@H]1C`: -1.3%; `Cc1n[nH]c(C)c1-c1ccnc(Nc2ccc3c(c2)N(C(C)C)[C@H](C)C(=O)N3C)n1`: 5.8%.
With `Cc1c(-c2nc(Nc3ccc4c(c3)N(C(C)C)[C@H](C)C(=O)N4C)ncc2F)c(C2CCCC2)nn1C`, the inhibition is 8.2%.
`Cc1nn(C)c(C2CC2)c1-c1ccnc(Nc2ccc3c(c2)N(C(C)C)[C@H](C)C(=O)N3C)n1`: the inhibition turned out to be 3.4%.
The same measure, in the same setting: next, `CC[C@@H]1C(=O)N(C)c2ccc(Nc3ncc(F)c(-c4c(C5CC5)nn(C)c4C)n3)cc2N1C(C)C`: 19%; `Cc1c(-c2ccnc(Nc3ccc4c(c3)N(C3CCCC3)[C@H](C)C(=O)N4C)n2)c(C2CC2)nn1C`: 4.6%; `Cc1c(-c2ccnc(Nc3ccc4c(c3)N(C(C)C)[C@H](C)C(=O)N4C)n2)c(C2CC2)nn1C`: 6.5%.
Same read-out and setting: next, `CC[C@@H]1C(=O)N(C)c2ccc(Nc3ncc(F)c(-c4c(C5CCCC5)nn(C)c4C)n3)cc2N1C(C)C`: 10%.
On the same count and under the same terms, next, `Cc1cc(-c2ccnc(Nc3ccc4c(c3)N(C(C)C)[C@H](C)C(=O)N4C)n2)n(C)n1`: -0.4%; `Cc1cc(Nc2ccnc(Nc3ccc4c(c3)N(C(C)C)[C@H](C)C(=O)N4C)n2)n(C(C)(C)C)n1`: -1.5%.
`CCc1n[nH]c(C2CC2)c1-c1ccnc(Nc2ccc3c(c2)N(C(C)C)[C@H](C)C(=O)N3C)n1`: the inhibition turned out to be 5.9%.
The same measure, in the same setting: next, `Cc1c(-c2nc(Nc3ccc4c(c3)N(C(C)C)[C@H](C)C(=O)N4C)ncc2Cl)c(C2CC2)nn1C`: 23%.
Still for that read-out and setting: next, `Cc1c(-c2ccnc(Nc3ccc4c(n3)N(C(C)C)[C@H](C)C(=O)N4C)n2)c(C2CC2)nn1C`: 0.8%; `CC(C)N1c2cc(Nc3nccc(-c4cc[nH]n4)n3)ccc2N(C)C(=O)[C@H]1C`: 5.4%; `CC(C)N1c2cc(Nc3nccc(-c4ccn(C)n4)n3)ccc2N(C)C(=O)[C@H]1C`: -1.4%.
Turning to `Cc1cc(Nc2ccnc(Nc3ccc4c(c3)N(C(C)C)[C@H](C)C(=O)N4C)n2)n(C(C)C)n1`, the inhibition stood at 0.5%.
Still for that read-out and setting: for `Cc1c(-c2nc(Nc3ccc4c(c3)N(C(C)C)[C@H](C)C(=O)N4C)ncc2F)c(C2CCC2)nn1C` the value was 18%; for `Cc1nn(-c2ccccc2)cc1-c1ccnc(Nc2ccc3c(c2)N(C(C)C)[C@H](C)C(=O)N3C)n1`, 0.9%.
Turning to `CC[C@@H]1C(=O)N(C)c2ccc(Nc3nccc(-c4c(C5CC5)nn(C)c4C)n3)cc2N1C(C)C`, the inhibition came to 2.7%.
The same measure, in the same setting: next, `CC(C)N1c2cc(Nc3nccc(Nc4cc(C(C)(C)C)nn4C)n3)ccc2N(C)C(=O)[C@H]1C`: 0%; `Cc1n[nH]c(C2CC2)c1-c1ccnc(Nc2ccc3c(c2)N(C(C)C)[C@H](C)C(=O)N3C)n1`: 12%.
On the same count and under the same terms, for `Cc1c(-c2ccnc(Nc3ccc4c(c3)N(C3CCC3)[C@H](C)C(=O)N4C)n2)c(C2CC2)nn1C` the value was 9.1%.
Same read-out and setting: for `Cc1nn(C(C)C)cc1-c1ccnc(Nc2ccc3c(c2)N(C(C)C)[C@H](C)C(=O)N3C)n1` the value was 2.5%; for `CCn1cc(-c2ccnc(Nc3ccc4c(c3)N(C(C)C)[C@H](C)C(=O)N4C)n2)c(C)n1`, 9.4%.
As to `Cc1c(-c2ccnc(Nc3cc(F)c4c(c3)N(C(C)C)[C@H](C)C(=O)N4C)n2)c(C2CC2)nn1C`, the inhibition was -0.9%.
Same read-out and setting: next, `Cc1cc(Nc2ccnc(Nc3ccc4c(c3)N(C(C)C)[C@H](C)C(=O)N4C)n2)n(-c2ccccc2)n1`: 5.3%; `CC(C)N1c2cc(Nc3nccc(Nc4cc(C5CC5)nn4C)n3)ccc2N(C)C(=O)[C@H]1C`: 3.8%.
On to `Cc1nn(C)cc1-c1ccnc(Nc2ccc3c(c2)N(C(C)C)[C@H](C)C(=O)N3C)n1`, for which the inhibition worked out at 3.2%.
On to `CC(C)N1c2cc(Nc3nccc(-c4cn[nH]c4)n3)ccc2N(C)C(=O)[C@H]1C`, for which the inhibition turned out to be 73%.
`CC(C)N1c2cc(Nc3nccc(-c4c[nH]nc4C4CCCC4)n3)ccc2N(C)C(=O)[C@H]1C`: the inhibition amounted to 62%.
Take `CC(C)N1c2cc(Nc3nccc(-c4c[nH]nc4-c4ccccc4)n3)ccc2N(C)C(=O)[C@H]1C`: the inhibition came out at 23%.

In the next experiment the target is T1, Bromodomain-containing protein 2 (Homo sapiens, UniProt P25440). In words: Inhibition of BRD2 BD1 (unknown origin) incubated for 2 to 4 hrs under dark condition by FP assay.
T1 sequence (P25440 whole entry): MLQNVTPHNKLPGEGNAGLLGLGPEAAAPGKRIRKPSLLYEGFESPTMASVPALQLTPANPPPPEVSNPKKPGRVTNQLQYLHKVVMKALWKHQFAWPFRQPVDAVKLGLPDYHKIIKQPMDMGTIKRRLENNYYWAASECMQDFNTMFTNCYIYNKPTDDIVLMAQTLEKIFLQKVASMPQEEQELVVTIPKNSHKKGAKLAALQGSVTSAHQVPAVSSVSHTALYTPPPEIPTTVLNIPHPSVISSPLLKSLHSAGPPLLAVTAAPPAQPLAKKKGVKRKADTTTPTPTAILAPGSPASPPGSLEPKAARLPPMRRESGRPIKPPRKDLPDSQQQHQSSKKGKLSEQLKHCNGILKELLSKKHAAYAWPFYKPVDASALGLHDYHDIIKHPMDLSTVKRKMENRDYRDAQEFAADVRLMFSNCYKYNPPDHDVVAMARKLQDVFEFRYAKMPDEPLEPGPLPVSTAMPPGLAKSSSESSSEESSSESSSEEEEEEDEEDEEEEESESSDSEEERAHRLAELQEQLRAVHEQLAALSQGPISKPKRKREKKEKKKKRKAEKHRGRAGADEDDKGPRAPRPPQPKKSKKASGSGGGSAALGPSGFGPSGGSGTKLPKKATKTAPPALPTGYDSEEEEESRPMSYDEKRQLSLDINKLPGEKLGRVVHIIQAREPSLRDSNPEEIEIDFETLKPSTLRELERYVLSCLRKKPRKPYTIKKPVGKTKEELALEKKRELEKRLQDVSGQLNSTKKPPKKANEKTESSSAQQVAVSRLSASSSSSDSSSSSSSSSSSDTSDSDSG
Details: not given
Compound `Cc1c(-c2nc(Nc3ccc4c(c3)N(C(C)C)[C@H](C)C(=O)N4C)ncc2F)c(C2CC2)nn1C` showed a pIC50 of 7.46.

The next experiment addresses T1, Bromodomain-containing protein 2. In words: Inhibition of BRD2 BD2 (unknown origin) incubated for 2 to 4 hrs under dark condition by FP assay.
Details: not given
In turn, `Cc1c(-c2nc(Nc3ccc4c(c3)N(C(C)C)[C@H](C)C(=O)N4C)ncc2F)c(C2CC2)nn1C` gave a pIC50 of 7.32.

The next experiment has as its system HCT-116. Briefly: Antiproliferative activity against human HCT-116 cells incubated for 48 hrs by 3H-thymidine uptake assay. The class given is functional, cell-based.
Details: not given
As for `Cc1sc2c(c1C)C(c1ccc(Cl)cc1)=N[C@@H](CC(=O)OC(C)(C)C)c1nnc(C)n1-2`, the pIC50 is 5.21.

Source of the values: ChEMBL document CHEMBL6096727, “Structure-Based Rational Design and Evaluation of BET-Aurora Kinase Dual-Inhibitors for Treatment of Cancers” (J Med Chem, 2025).
